Results taken from the Deep4Chem optical property database.
Each block holds one molecule with its values, some of them ahead of it.

Assay: solvent given as SMILES

SMILES: COc1ccc2c(=O)c3c([nH]c2c1)-c1cc(Cl)ccc1NC3(C)C
emission maximum (in C1CCOC1): 489 nm
emission maximum (in CC#N): 512 nm
emission maximum (in CCCCO): 525 nm
emission maximum (in CCCO): 525 nm
emission maximum (in CCO): 525 nm
emission maximum (in CCOC(C)=O): 497 nm
emission maximum (in CN(C)C=O): 509 nm
emission maximum (in CO): 532 nm
emission maximum (in CS(C)=O): 511 nm
emission maximum (in Cc1ccccc1): 477 nm
emission maximum (in ClC(Cl)(Cl)Cl): 469 nm
emission maximum (in ClCCl): 491 nm
emission maximum (in O): 555 nm
emission maximum (in c1ccccc1): 478 nm

SMILES: CCCCC1(c2ccccc2)Nc2c(-c3ccc(N(c4ccccc4)c4ccccc4)cc3)ccc(-c3ccc(N(c4ccccc4)c4ccccc4)cc3)c2N=C1c1ccccc1 (stereo unspecified)
emission maximum (in C1CCOC1): 554 nm
emission maximum (in CC#N): 567 nm
emission maximum (in CCCCCC): 521 nm
emission maximum (in CN(C)C=O): 578 nm
emission maximum (in Cc1ccccc1): 533 nm
emission maximum (in ClC(Cl)Cl): 547 nm

SMILES: CCCCN1/C(=C\c2c(-c3ccc(N(C)C)cc3)c(=O)c2=O)C=Cc2ccccc21
emission maximum (in C1CCCCC1): 428 nm
emission maximum (in Cc1ccccc1): 435 nm
emission maximum (in ClCCl): 585 nm

SMILES: CCCCn1c(-c2ccc(-c3ccc(-c4ccc(-c5n(CCCC)c6cc(C)ccc6[n+]5CCCC)cc4)cc3)cc2)[n+](CCCC)c2ccc(C)cc21
emission maximum (in O): 397 nm

SMILES: O=C(O)C1=C(C(=O)O)C2=C[C@H]3c4ccccc4[C@]2([Se]1)c1ccccc13
emission maximum (in ClCCl): 507 nm

SMILES: CCC1=C(C)C2=Cc3c4ccccc4c4n3[B-](c3ccc5ccc6cccc7ccc3c5c67)(Oc3ccccc3-4)[N+]2=C1C (stereo unspecified)
emission maximum (in CC#N): 635 nm
emission maximum (in CCCCCC): 638 nm
emission maximum (in Cc1ccccc1): 642 nm
emission maximum (in ClCCl): 640 nm

SMILES: c1cc2c3c(c1)-c1cccc4cccc(c14)B3c1cccc3cccc-2c13
emission maximum (in Cc1ccccc1): 491 nm

SMILES: CN(C)c1ccc(N(C)C)cc1
emission maximum (in C1CCCCC1): 394.48 nm

SMILES: CC(=O)Nc1ccc(/C=C2\OC(=O)c3cc(N)ccc32)cc1
emission maximum (in CC#N): 455.79 nm
emission maximum (in CC(C)=O): 453.31 nm
emission maximum (in CC(C)CO): 482.86 nm
emission maximum (in CC(C)O): 483.09 nm
emission maximum (in CCCO): 484.26 nm
emission maximum (in CCO): 485.91 nm
emission maximum (in CCOC(C)=O): 443.66 nm
emission maximum (in CCOCC): 429.92 nm
emission maximum (in CO): 490.2 nm

SMILES: Cc1cc(C)c([B-]2(c3c(C)cc(C)cc3C)[O+]=P(c3ccccc3)(c3ccccc3)c3cc(-c4ccc(N(C)C)cc4)sc3-c3sc(-c4ccc(N(C)C)cc4)cc32)c(C)c1
emission maximum (in C1CCOC1): 552 nm

SMILES: O=C(O)CCCc1cc(C#Cc2ccccc2)c2ccc3c(C#Cc4ccccc4)cc(C#Cc4ccccc4)c4ccc1c2c34
emission maximum (in CS(C)=O): 461 nm
emission maximum (in ClC(Cl)(Cl)Cl): 460 nm

SMILES: O=S1(=O)c2ccc(-c3ccc(-n4c5ccccc5c5ccccc54)cc3)cc2C2(c3ccccc3-c3ccccc32)c2cc(-c3ccc(-n4c5ccccc5c5ccccc54)cc3)ccc21
emission maximum (in CC(C)=O): 443.88 nm
emission maximum (in CCCCCC): 400.18 nm
emission maximum (in CN(C)C=O): 455.8 nm
emission maximum (in Cc1ccccc1): 396.57 nm
emission maximum (in ClCCl): 432 nm

SMILES: c1ccc(-c2nc(-c3ccc(-n4c5ccccc5c5ccc6c(c7ccccc7n6-c6ccccc6)c54)cc3)c3sc4ccccc4c3n2)cc1
emission maximum (in Cc1ccccc1): 465.01 nm

SMILES: CCCCCCCCN1c2ccc(C#Cc3ccc(F)cc3)cc2Sc2cc(C=O)ccc21
emission maximum (in C1CCOC1): 513 nm
emission maximum (in CC#N): 538 nm
emission maximum (in CCCCCC): 488 nm
emission maximum (in CO): 466 nm
emission maximum (in CS(C)=O): 542 nm
emission maximum (in Cc1ccccc1): 507 nm
emission maximum (in ClC(Cl)Cl): 539 nm

SMILES: COC(=O)/C=C/c1ccc2ccc3cccc4ccc1c2c34
emission maximum (in C1CCOC1): 425.5 nm
emission maximum (in C1COCCO1): 422.5 nm
emission maximum (in C=CC#N): 447.5 nm
emission maximum (in CC#N): 450 nm
emission maximum (in CC(C)=O): 438 nm
emission maximum (in CCCCCC): 406.5 nm
emission maximum (in CCOC(C)=O): 423 nm
emission maximum (in CO): 462.5 nm
emission maximum (in Cc1ccccc1): 423 nm
emission maximum (in ClCCl): 442 nm

SMILES: CCN(CC)c1ccc(/C=C/c2ccc(-c3ccc(/C=C/c4ccc(N(CC)CC)cc4)s3)s2)cc1
emission maximum (in C1CCOC1): 544 nm
emission maximum (in CC#N): 577 nm
emission maximum (in CC(C)=O): 570 nm
emission maximum (in CN(C)C=O): 586 nm
emission maximum (in Cc1ccccc1): 530 nm

SMILES: c1cc2c3c(cccc3c1)-c1c-2c2c3ccccc3c3ccc4c5c6c(c7c8ccccc8c8ccc9c%10c%11c(c%12c%13ccccc%13c%13ccc%14c1c1c2c3c4c2c1c1c%14c%13c%12c%10c1c1c9c8c7c5c21)-c1cccc2cccc-%11c12)-c1cccc2cccc-6c12
emission maximum (in C1CCOC1): 594 nm

SMILES: N#Cc1ccc(N2c3ccccc3C(c3ccccc3)(c3ccccc3)c3ccccc32)cc1
emission maximum (in Cc1ccccc1): 428 nm

SMILES: c1ccc(N2c3ccc4ccccc4c3-c3c4ccccc4nc[n+]3[B-]2(c2ccccc2)c2ccccc2)cc1
emission maximum (in C1CCC2CCCCC2C1): 642 nm
emission maximum (in C1CCCCC1): 640 nm
emission maximum (in C1CCOC1): 665 nm
emission maximum (in CC#N): 677 nm
emission maximum (in CC(C)=O): 675 nm
emission maximum (in CCCCCC): 641 nm
emission maximum (in CCOC(C)=O): 665 nm
emission maximum (in CN(C)C=O): 680 nm
emission maximum (in Cc1ccccc1): 654 nm
emission maximum (in ClC(Cl)Cl): 676 nm

SMILES: c1cc2ccc3[se]c4ccc5cccc6c(c1)c2c3c4c56
emission maximum (in ClC(Cl)Cl): 424 nm

SMILES: COc1ccc(/C=C/C2=CC(/C=C/c3ccc(OC)c4ccccc34)=[O+][B-](F)(F)O2)c2ccccc12
emission maximum (in CC#N): 651 nm
emission maximum (in CC(C)=O): 622 nm
emission maximum (in CCOC(C)=O): 590 nm
emission maximum (in CCOCC): 587 nm
emission maximum (in ClC(Cl)(Cl)Cl): 561 nm
emission maximum (in ClCCl): 616 nm

SMILES: O=Cc1cc(O)ccc1O
emission maximum (in CC(C)=O): 423 nm
emission maximum (in CCCO): 484 nm
emission maximum (in CCO): 487 nm
emission maximum (in CN(C)C=O): 440 nm
emission maximum (in CN(C)P(=O)(N(C)C)N(C)C): 438 nm
emission maximum (in CNC=O): 479 nm
emission maximum (in CS(C)=O): 446 nm
emission maximum (in NC=O): 490 nm

Further lines, results first:

emission maximum (in ClC(Cl)Cl): 568 nm
SMILES: F[B-]1(F)n2cccc2C(c2ccccc2)=C2C=CC(c3cccc(OC4=[N+]5C(=C(c6ccccc6)c6cc(Br)c(Br)n6[B-]5(F)F)C=C4Br)c3)=[N+]21

emission maximum (in CC#N): 430 nm
SMILES: C=CC(=O)Oc1ccc2cc(C=C)c(=O)oc2c1

emission maximum (in C1CCOC1): 371 nm
SMILES: O=Cc1ccc(-c2ccc3c(c2)C(=O)c2cc(-c4ccc(C=O)cc4)ccc2-3)cc1

emission maximum (in CC#N): 518 nm
SMILES: Cc1ccc2nc3c(=O)n(C)c(=O)nc-3n(C)c2c1

emission maximum (in ClCCl): 550 nm
SMILES: COc1ccc(-c2c3ccccc3c(C#Cc3ccccc3)c3cc4ccccc4cc23)cc1

emission maximum (in ClCCl): 532 nm
SMILES: CCC1=C(C)C2=C(/C=C/c3ccc([N+](=O)[O-])cc3)c3c(C)c(CC)c(C)n3[B-](F)(F)[N+]2=C1C

emission maximum (in ClCCl): 430 nm
SMILES: O=C1c2cc3ccccc3cc2C2=Nc3ccc4ccccc4[n+]3[B-](F)(F)N12

emission maximum (in C1COCCO1): 349 nm
SMILES: CC(C)(C)c1cc(-c2ccc(-c3cc(C(C)(C)C)cc(C(C)(C)C)c3)cc2)cc(C(C)(C)C)c1

emission maximum (in CS(C)=O): 417 nm
emission maximum (in O): 417 nm
SMILES: O=c1c2cc(S(=O)(=O)O)ccc2[nH]c2ccc(S(=O)(=O)O)cc12

emission maximum (in CCCCCCC): 536 nm
SMILES: c1cc2c3c(cccc3c1)-c1c-2c2ccccc2c2ccccc12

emission maximum (in ClCCl): 595 nm
SMILES: CCCCCCOc1cc(N(CC)CC)ccc1/C=C/C(=C(C#N)C#N)c1ccc(N(c2ccccc2)c2ccccc2)cc1

emission maximum (in ClCCl): 504 nm
SMILES: COc1ccc(-c2c3ccccc3c(C#Cc3ccccc3)c3cc4cc(C)sc4cc23)cc1

emission maximum (in CS(C)=O): 450 nm
SMILES: Cc1ccc(C2C(C#N)=C(N)n3c(=O)c4ccccc4c(=O)n32)cc1 (stereo unspecified)

emission maximum (in ClCCl): 504 nm
SMILES: COC(=O)c1[nH]c(-c2ccc(OC)cc2)c2nnc3ccc(OC)cc3c12

emission maximum (in ClC(Cl)Cl): 702 nm
SMILES: COc1ccc(-c2c(-c3ccc(C)cc3)c3n(c2-c2ccc(C)cc2)[B-](F)(F)[N+]2=C(c4ccc(C)cc4)C(/C=C/C(=O)OC4CC[C@@]5(C)C(=CC[C@H]6[C@@H]7CC[C@H]([C@H](C)CCCC(C)C)[C@@]7(C)CC[C@@H]65)C4)=C(c4ccc(C)cc4)C2=N3)cc1 (stereo partly specified)

emission maximum (in O): 450 nm
SMILES: CC(=O)Nc1ccc2c(c1)c(=O)c1ccccc1n2CCCCCC(=O)O

emission maximum (in C1CCOC1): 432 nm
SMILES: O=S1(=O)C(c2cccs2)=C(c2cccs2)c2ccccc21

emission maximum (in ClCCl): 419 nm
SMILES: COc1c(C(C)=O)c(=O)oc2cc(N(C)C)ccc12

emission maximum (in C1CCOC1): 396 nm
SMILES: c1ccc(-n2c(-c3ccccc3-n3c4ccccc4c4ccccc43)nc3ccccc32)cc1

emission maximum (in C1CCCCC1): 415 nm
SMILES: C#Cc1ccc(C#Cc2cnc(C#Cc3ccccc3)nc2)cc1

emission maximum (in C1CCCCC1): 417 nm
SMILES: COc1ccc(C2=C(c3ccc(OC)cc3)C(C)(C)c3cc(-c4ccccc4)ccc32)cc1

emission maximum (in C1CCCCC1): 396 nm
SMILES: CCCC1(CCC)c2ccccc2-c2ccc(-c3ccc4c(c3)C(CCC)(CCC)c3cc(-c5ccc6c(c5)C(CCC)(CCC)c5ccccc5-6)ccc3-4)cc21

emission maximum (in ClC(Cl)Cl): 714 nm
emission maximum (in ClCCl): 714 nm
SMILES: COc1ccc(C2=[N+]3C(=Nc4c(-c5ccccc5)c(Br)c(-c5ccc(OC)cc5)n4[B-]3(F)F)C(c3ccccc3)=C2Br)cc1

emission maximum (in CO): 586 nm
SMILES: COc1ccc(-c2cc(B(c3c(C)cc(C)cc3C)c3c(C)cc(C)cc3C)c(-c3sc(-c4ccc(OC)cc4)cc3P(=O)(c3ccccc3)c3ccccc3)s2)cc1

emission maximum (in ClC(Cl)Cl): 640 nm
SMILES: CCCCCCCCCCCCOc1cc2c3c(ccc4c5c(SCCCCCCCCCCCC)cc6c7c(ccc(c1c34)c75)C(=O)N(C1CCCCC1)C6=O)C(=O)N(C1CCCCC1)C2=O

emission maximum (in CO): 380 nm
SMILES: N#Cc1c(-n2nnc3c2CCC2C(CC3)[C@@H]2CO)n([C@H]2C[C@H](O)[C@@H](CO)O2)c2ncnc(N)c12 (stereo partly specified)

emission maximum (in ClCCl): 419 nm
SMILES: c1ccc(-c2cn3ccc[n+]3[n-]2)cc1

emission maximum (in C1COCCO1): 439 nm
emission maximum (in CC#N): 452 nm
emission maximum (in CCO): 453 nm
emission maximum (in CCOC(C)=O): 442 nm
emission maximum (in O): 464 nm
SMILES: CC1=N/C(=C\c2ccncc2)C(=O)N1C

emission maximum (in ClC(Cl)Cl): 459 nm
SMILES: FC(F)(F)c1ccc(-c2ncc3ccccn23)cc1

emission maximum (in O): 660 nm
SMILES: Cc1ccccc1C1=C2C=CC(=[N+](C)C)C=C2[Si](C)(C)c2cc(N(C)C)ccc21

emission maximum (in CC1CCCCC1): 501 nm
emission maximum (in CC#N): 503 nm
SMILES: C(=C\c1c2ccccc2cc2ccccc12)/c1cccc2ccccc12
